The pA2 is a measure of antagonist potency on a negative log scale. The low end stands for lower antagonist potency, the high end for higher antagonist potency. In general, Ki refers to the dissociation constant of the complex between target and ligand, obtained from inhibition or displacement. A low value points to a stronger hold on the target.

Data on 17 compounds can be found in ChEMBL document CHEMBL1131296 (J Med Chem, 1998).

Structures are written as SMILES.

Assay [1] concerns the target T1, Alpha-1B adrenergic receptor (Rattus norvegicus, UniProt P15823).
T1 sequence (P15823 whole entry): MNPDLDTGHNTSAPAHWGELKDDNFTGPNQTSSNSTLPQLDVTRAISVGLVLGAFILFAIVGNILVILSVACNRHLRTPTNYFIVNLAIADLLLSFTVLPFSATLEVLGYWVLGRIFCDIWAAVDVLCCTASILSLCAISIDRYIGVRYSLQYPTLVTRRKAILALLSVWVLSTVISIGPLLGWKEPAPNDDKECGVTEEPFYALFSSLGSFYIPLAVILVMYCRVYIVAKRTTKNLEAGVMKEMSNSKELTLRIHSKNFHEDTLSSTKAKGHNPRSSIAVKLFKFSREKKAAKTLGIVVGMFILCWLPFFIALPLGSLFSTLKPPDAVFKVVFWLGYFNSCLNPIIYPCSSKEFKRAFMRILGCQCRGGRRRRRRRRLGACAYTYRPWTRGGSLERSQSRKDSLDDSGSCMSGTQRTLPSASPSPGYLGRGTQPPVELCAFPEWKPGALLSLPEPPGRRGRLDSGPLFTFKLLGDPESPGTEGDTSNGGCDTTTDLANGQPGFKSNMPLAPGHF
Kind of assay: Antagonism of phenylephrine stimulated contraction of the rat isolated spleen. To be noted: read-out: pA2 (converted). Format: functional, tissue-based.

Assay [2] concerns the target T2, Alpha-1A adrenergic receptor (Rattus norvegicus, UniProt P43140).
T2 sequence (P43140 whole entry): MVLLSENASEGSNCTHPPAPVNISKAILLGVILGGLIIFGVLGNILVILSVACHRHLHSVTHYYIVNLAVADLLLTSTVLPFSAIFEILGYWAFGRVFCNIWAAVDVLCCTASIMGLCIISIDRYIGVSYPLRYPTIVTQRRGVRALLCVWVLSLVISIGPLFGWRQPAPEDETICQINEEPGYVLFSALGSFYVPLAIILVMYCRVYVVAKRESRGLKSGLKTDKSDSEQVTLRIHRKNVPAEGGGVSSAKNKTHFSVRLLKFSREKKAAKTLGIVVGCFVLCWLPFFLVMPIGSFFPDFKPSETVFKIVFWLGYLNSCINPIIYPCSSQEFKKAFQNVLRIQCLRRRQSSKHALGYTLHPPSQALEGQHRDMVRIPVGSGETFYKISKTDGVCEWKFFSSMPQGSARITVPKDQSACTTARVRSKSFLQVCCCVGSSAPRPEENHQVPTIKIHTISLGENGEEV
Description: Antagonism of the norepinephrine induced contraction of rat isolated prostatic vas deferens. Type of assay: functional. The note with it: read-out: pA2 (converted).

Assay [3] deals with T3, Alpha-1D adrenergic receptor (Rattus norvegicus, UniProt P23944).
T3 sequence (P23944 whole entry): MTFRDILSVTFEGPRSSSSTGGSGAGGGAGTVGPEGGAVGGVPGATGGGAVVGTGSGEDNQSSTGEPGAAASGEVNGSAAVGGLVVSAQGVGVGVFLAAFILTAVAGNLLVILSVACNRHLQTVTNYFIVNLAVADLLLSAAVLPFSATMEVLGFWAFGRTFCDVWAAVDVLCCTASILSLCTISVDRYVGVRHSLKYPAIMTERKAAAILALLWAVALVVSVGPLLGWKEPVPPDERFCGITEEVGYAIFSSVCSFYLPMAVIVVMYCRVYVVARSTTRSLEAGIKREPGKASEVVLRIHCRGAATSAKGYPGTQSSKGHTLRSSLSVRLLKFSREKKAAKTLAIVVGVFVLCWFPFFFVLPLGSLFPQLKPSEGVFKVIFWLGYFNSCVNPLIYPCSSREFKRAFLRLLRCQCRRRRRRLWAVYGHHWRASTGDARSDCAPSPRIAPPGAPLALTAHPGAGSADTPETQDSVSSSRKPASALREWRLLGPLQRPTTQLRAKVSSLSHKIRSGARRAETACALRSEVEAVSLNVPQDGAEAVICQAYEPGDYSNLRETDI
Kind of assay: Antagonism of norepinephrine induced contraction of rat isolated thoracic aorta. Format: functional, tissue-based. To be noted: read-out: pA2 (converted).

Assay [4] has as its target T4, Adrenergic receptor alpha-2 (Rattus norvegicus, UniProt P22086+P19328+P22909).
T4 sequence (P22086 whole entry): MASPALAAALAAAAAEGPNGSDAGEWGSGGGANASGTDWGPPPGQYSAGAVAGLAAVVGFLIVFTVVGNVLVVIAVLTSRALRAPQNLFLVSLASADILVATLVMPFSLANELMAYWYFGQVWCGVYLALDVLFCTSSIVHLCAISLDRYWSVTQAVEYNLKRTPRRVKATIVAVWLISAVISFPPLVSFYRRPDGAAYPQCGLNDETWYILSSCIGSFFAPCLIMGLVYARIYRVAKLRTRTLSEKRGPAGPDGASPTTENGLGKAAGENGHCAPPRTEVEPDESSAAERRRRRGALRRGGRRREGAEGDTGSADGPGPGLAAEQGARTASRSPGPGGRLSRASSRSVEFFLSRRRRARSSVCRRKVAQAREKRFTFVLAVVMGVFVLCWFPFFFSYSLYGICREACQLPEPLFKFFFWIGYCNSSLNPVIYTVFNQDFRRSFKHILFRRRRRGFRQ
T4 sequence (P19328 whole entry): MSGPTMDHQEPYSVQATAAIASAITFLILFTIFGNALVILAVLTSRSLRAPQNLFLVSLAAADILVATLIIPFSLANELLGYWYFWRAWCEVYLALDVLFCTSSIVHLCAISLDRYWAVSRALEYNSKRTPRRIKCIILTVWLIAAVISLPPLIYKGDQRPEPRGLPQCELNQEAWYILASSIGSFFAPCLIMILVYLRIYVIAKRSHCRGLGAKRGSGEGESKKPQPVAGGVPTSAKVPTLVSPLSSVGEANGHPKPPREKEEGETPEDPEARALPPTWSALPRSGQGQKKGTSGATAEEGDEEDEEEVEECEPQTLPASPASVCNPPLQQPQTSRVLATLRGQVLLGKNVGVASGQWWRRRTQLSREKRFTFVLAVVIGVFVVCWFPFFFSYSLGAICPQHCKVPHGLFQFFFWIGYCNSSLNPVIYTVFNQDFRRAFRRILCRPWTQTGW
T4 sequence (P22909 whole entry): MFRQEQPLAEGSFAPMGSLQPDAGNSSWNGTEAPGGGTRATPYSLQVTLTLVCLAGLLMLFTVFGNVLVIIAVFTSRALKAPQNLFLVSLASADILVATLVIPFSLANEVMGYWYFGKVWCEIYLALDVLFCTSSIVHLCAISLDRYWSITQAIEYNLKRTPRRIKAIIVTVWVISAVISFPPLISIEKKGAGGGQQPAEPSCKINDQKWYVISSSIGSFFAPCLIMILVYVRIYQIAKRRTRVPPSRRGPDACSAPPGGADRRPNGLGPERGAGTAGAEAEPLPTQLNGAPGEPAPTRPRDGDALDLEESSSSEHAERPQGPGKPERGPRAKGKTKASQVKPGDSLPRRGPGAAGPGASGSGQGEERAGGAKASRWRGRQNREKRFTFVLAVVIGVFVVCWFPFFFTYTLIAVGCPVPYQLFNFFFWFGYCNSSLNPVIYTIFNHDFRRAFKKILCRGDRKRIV
Description: Antagonism of the clonidine-induced depression of twitch responses of rat isolated prostatic vas deferens.

Assay [5] addresses T5, Alpha-1B adrenergic receptor (Homo sapiens, UniProt P35368).
T5 sequence (P35368 whole entry): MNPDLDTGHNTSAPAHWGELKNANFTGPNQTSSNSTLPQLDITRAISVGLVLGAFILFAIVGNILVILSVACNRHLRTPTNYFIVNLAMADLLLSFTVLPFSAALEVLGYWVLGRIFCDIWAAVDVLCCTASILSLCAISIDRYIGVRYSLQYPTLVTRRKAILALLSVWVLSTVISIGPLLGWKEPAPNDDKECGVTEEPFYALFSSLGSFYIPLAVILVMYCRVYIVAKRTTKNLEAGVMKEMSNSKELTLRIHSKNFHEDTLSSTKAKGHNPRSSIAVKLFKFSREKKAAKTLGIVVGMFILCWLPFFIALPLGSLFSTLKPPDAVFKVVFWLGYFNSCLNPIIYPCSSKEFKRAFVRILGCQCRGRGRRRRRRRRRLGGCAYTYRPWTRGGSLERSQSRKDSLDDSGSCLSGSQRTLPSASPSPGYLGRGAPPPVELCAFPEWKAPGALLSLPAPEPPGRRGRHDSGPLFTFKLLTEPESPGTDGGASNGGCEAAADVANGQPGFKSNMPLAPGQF
Description: Binding affinity at human cloned Alpha-1B adrenergic receptor in chinese hamster ovary cells by [3H]prazosin displacement. Type of assay: cell-based, CHO.

Regarding `COc1cc2nc(N(C)CCCCCCN(C)C(=O)c3ccccc3CN(C)C)nc(N)c2cc1OC`, the Kb was 13.2 nM in assay [1], 91.2 nM in assay [2] and 5.5 nM in assay [3]. Also, in assay [4], the pA2 is recorded as below 5.
The matching figures for `COc1cc2nc(N(C)CCCCCCN(C)C(=O)c3ccc(CN4CCSC4)cc3)nc(N)c2cc1OC`: 9.77 nM, 58.9 nM, 6.76 nM and below 5.
The like results for `COc1cc2nc(N(C)CCSSCCN(C)C(=O)c3ccc(CCl)o3)nc(N)c2cc1OC` were, in that order, 42.7 nM, 16.6 nM, 9.33 nM and below 5.
The matching figures for `COc1cc2nc(N(C)CCCCCCN(C)C(=O)c3ccccc3CNCCCCCCN)nc(N)c2cc1OC`: 0.676 nM, 10.7 nM, 3.16 nM and 5.47.
In the case of `COc1cc2nc(N(C)CCCCCCN(C)C(=O)c3cccc(CN)c3)nc(N)c2cc1OC`, the Kb is 2.45 nM in assay [1], 47.9 nM in assay [2] and 2.04 nM in assay [3]. In assay [4], this compound showed a pA2 of 5.44.
Turning to `COc1cc2nc(N(C)CCCCCCN(C)C(=O)c3cccc(CN4CCSC4)c3)nc(N)c2cc1OC`, the Kb in assay [1] was 9.33 nM; in assay [2], 15.1 nM; in assay [3] it was 3.09 nM. Moreover, the pA2 in assay [4] turned out to be 5.94.
Take `COc1cc2nc(N(C)CCCCCCN(C)C(=O)c3ccc(CCl)o3)nc(N)c2cc1OC`: the Kb in assay [1] was 1.07 nM; in assay [2], 6.76 nM; in assay [3], 0.407 nM. The same compound returned a pA2 in assay [4] below 5.
The like results for `COc1cc2nc(N(C)CCSSCCN(C)C(=O)c3ccc(CN(C)C)o3)nc(N)c2cc1OC` were, in that order, 53.7 nM, 200 nM, 6.03 nM and below 5.
The like results for `COc1cc2nc(N(C)CCCCCCN(C)C(=O)c3ccc(CN(C)C)o3)nc(N)c2cc1OC` were, in that order, 2.4 nM, 38.9 nM, 5.89 nM and below 5.
The matching figures for `COc1cc2nc(N(C)CCCCCCN(C)C(=O)c3ccc(CN(C)C)cc3)nc(N)c2cc1OC`: 2.95 nM, 72.4 nM, 13.8 nM and 5.12.
Take `CNCCCCCCN(C)Cc1ccc(C(=O)N(C)CCCCCCN(C)c2nc(N)c3cc(OC)c(OC)cc3n2)cc1`: the Kb in assay [1] was 0.617 nM; in assay [2] it was 191 nM; in assay [3] it was 3.47 nM. Further, in assay [4], the pA2 was 5.6.
The matching figures for `COc1cc2nc(N(C)CCCCCCN(C)C(=O)c3ccccc3)nc(N)c2cc1OC`: 0.447 nM, 38 nM, 6.92 nM and 6.52.
`COc1ccccc1N1CCN(CCN2C(=O)CC3(CCCC3)CC2=O)CC1` [BMY-7378] came in with a pA2 in assay [4] below 5. This compound showed an inhibition constant (Ki) in assay [5] of 64.6 nM.
Take `COc1cc2nc(N(C)CCCCCCN(C)C(=O)c3ccccc3CCl)nc(N)c2cc1OC`: the Kb is 1.86 nM in assay [1], 417 nM in assay [2] and 2.82 nM in assay [3]. For the same compound, the pA2 in assay [4] was found to be 5.31.
The like results for `CNCCCCCCN(C)Cc1cccc(C(=O)N(C)CCCCCCN(C)c2nc(N)c3cc(OC)c(OC)cc3n2)c1` were, in that order, 19.5 nM, 8.91 nM, 14.5 nM and below 5.
As to `COc1cc2nc(N(C)CCCCCCN(C)C(=O)c3ccc(CCl)cc3)nc(N)c2cc1OC`, the Kb was 0.708 nM in assay [1], 77.6 nM in assay [2] and 19.5 nM in assay [3]. Further, the pA2 in assay [4] came to 5.54.
The matching figures for `COc1cc2nc(N(C)CCCCCCN(C)C(=O)c3cccc(CCl)c3)nc(N)c2cc1OC`: 66.1 nM, 79.4 nM, 51.3 nM and below 5.
